In PubChem BioAssay AID1963853 (Molecular Pharmacology Branch, DTP, NCI, 2024):
“And” between values parts separate entries of the source, which are not always exact repeats. Identical values can stand only once.

System: 266295-075-R-J1-PDC spheroid viability
Assay: Anticancer human tumor 266295-075-R-J1-PDC patient-derived head and neck squamous carcinoma cell line growth inhibition [POLQ]
Settings: spheroids with HUVEC and MSC; for viability, T/C: stronger effect = lower value
Method: Multicellular complex tumor spheroid response to Polymerase (POL) inhibitors (novobiocin, ART-558, RP6685) in combination with a variety of drugs and investigational agents in selected tumor cell lines
The POL inhibitors (novobiocin, ART-558, and RP6685) were evaluated both individually and in combination with standard of care and investigational anticancer small molecules within a complex spheroid model of solid tumors. . Complex spheroids include a stromal component modeled by human endothelial cells (HUVEC) and fibroblasts modeled by human mesenchymal stem cells (MSCs). The concentration ranges selected for each drug and investigational agent were based upon clinically achievable concentrations if the clinical Cmax of the agent was known.
Compounds. The drugs and investigational agents: novobiocin (NSC847541), ART-558 (NSC835418), RP-6685 (NSC848927), peposertib (NSC802822), ceralasertib (NSC780249), elimusertib (NSC800525), camonsertib (NSC841442), AZD-1390 (NSC803789), olaparib (NSC753686), talazoparib (NSC767125), rucaparib (NSC756644), sotorasib (NSC818433), MRTX-1133 (NSC836407), SN-38 (NSC673596), topotecan (NSC609699), epotoside (NSC141540), doxorubicin (NSC123127), gemcitabine (NSC613327), 5-fluorouracil (NSC19893), paclitaxel (NSC125973), vemurafenib (NSC761431), MSA-2 (NSC828583), SN-011 (NSC837082), adavosertib (NSC754352), prexasertib (NSC758257), carboplatin (NSC241240) and oxaliplatin (NSC266046), were obtained from the National Cancer Institute (NCI) Developmental Therapeutics Program Chemical Repository (21). The FDA-approved anticancer drug set is available from the Developmental Therapeutics Program at https://dtp.cancer.gov/organization/dscb/obtaining/. […] The stock solutions were prepared in dimethyl sulfoxide (DMSO, Sigma-Aldrich, St. Louis, MO, cat. D2650), except for the platinum compounds which were prepared in saline (Quality Biological, Gaithersburg, MD, cat. 114-055-101), at 800-fold the tested concentration and stored at -70 degrees C prior to their use. All drugs and investigational agents were tested over a range starting from a high concentration at or near the clinical Cmax and decreasing in half-log increments. If the clinical Cmax for an agent had not been determined, the highest concentration tested was 10 microM, except for SN-38, which was tested at a high concentration of 1 microM.
Cell Culture. All cells were maintained in an incubator at 37 degrees C and 5% CO2 with 95% humidity. The PDC lines were cultured according to standard operating procedures established by the NCI PDMR (https://pdmr.cancer.gov). Table 3 of the manuscript, lists the cell lines along with the number of the three cell types plated to form the mct-spheroids and media for tumor cell growth. After thawing, all PDC lines, except 997537-175-T-J1-PDC and 415267-285-R-J2-PDC, were cultured in Matrigel-coated flasks prepared with a working solution of 1X Ham's F-12 nutrient mix, without supplementation (Thermo Fisher Scientific, cat. 11765054), 100 U/mL penicillin-streptomycin (Thermo Fisher Scientific, cat. 15140122), and 2.5% Matrigel (Corning Inc., Corning, NY, cat. 354248) for the first three passages. The two PDC lines 997537-175-T-J1-PDC and 415267-285-R-J2-PDC were cultured on uncoated flasks. The 857933-349-R-J2-PDC line was cultured in 6C/Colon 1B media containing advanced DMEM/F-12 (Thermo Fisher Scientific, cat. 12634028), 10 mM HEPES (Thermo Fisher Scientific, cat. 15630080), 1X GlutaMAX supplement (Thermo Fisher Scientific, cat. 35050061), 0.1 mg/mL primocin (InvivoGen, San Diego, CA, cat. ant-pm-2), 10% defined fetal bovine serum, heat inactivated (HyClone Laboratories Inc., Logan, UT, cat. SH30070.03HI), 50% L-WRN conditioned media (ATCC, cat. CRL-3276), 1.25 mM N-Acetyl-L-cysteine (Sigma-Aldrich, cat. A9165), 10 mM nicotinamide (Sigma-Aldrich, cat. N0636), 1X B-27 supplement (Thermo Fisher Scientific, cat. 17504044), 1X N-2 supplement (Thermo Fisher Scientific, cat. […]
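Also: spheroids exposed to compounds for seven days before readout.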

SMILES | viability, T/C (compound 0.0316 µM) | viability, T/C (compound 0.1 µM) | viability, T/C (compound 0.316 µM) | viability, T/C (compound 1 µM) | viability, T/C (compound 3.16 µM) | viability, T/C (compound 10 µM) | IC50 (curve of compound) | IC50 (compound alone, run of 10/31/2023) | viability, T/C (compound 0.00316 µM) | viability, T/C (compound 0.01 µM)
CCCS(=O)(=O)Nc1ccc(F)c(C(=O)c2c[nH]c3ncc(-c4ccc(Cl)cc4)cc23)c1F | 123% and 120% and 97.3% | 110% and 106% and 109% | 105% and 98.9% and 110% | 113% and 136% and 117% | 121% (2×) and 136% | 141% and 162% and 187% | > 10 µM | – | – | –
COC1C(OC(N)=O)C(O)C(Oc2ccc3c(O)c(NC(=O)c4ccc(O)c(CC=C(C)C)c4)c(=O)oc3c2C)OC1(C)C (centres undefined) | 101% [middle of 13 runs] | – | – | 101% [middle of 13 runs] | – | – | – | > 10 µM | – | –
COc1cccc(OCCCN)c1-c1cc(Nc2cnc(C#N)cn2)n[nH]1 | 70.5% and 72.5% and 94.9% | 77.6% and 81.7% and 73.8% | 73.2% and 70% and 74.8% | 85% and 73.7% and 71.7% | – | – | > 1 µM | – | 109% and 97% and 97.8% | 88.7% and 92.5% and 82.9%
COc1cc2cc(C(=O)CCC(=O)O)sc2cc1OC | 96.8% and 81.4% and 99% | 105% and 89.9% and 92.6% | 108% and 91.4% and 97.7% | 101% (2×) and 99.7% | 87.9% and 109% and 115% | 93.1% and 105% and 85.8% | > 10 µM | – | – | –
